Results as given in PubChem BioAssay AID2060892 (Molecular Pharmacology Branch, DTP, NCI, 2025).

System: HOP-62 complex spheroids with HUVEC/MSC, viability
Experiment: Anticancer human tumor HOP-62 cell line growth inhibition [RAS];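 also: spheroids exposed to agents for seven days before readout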;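 as to viability, T/C: 100% = DMSO vehicle control viability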
Settings: for IC50: curve of first compound; for viability, T/C: stronger effect = lower value
In short: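 Multi-cell-type spheroids: tumor cells plus HUVEC endothelial cells and mesenchymal stem cells. RAS-pathway inhibitors were combined with targeted agents, each dosed in half-log steps down from clinical Cmax, or from 10 microM when Cmax was unknown.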

[1] = second compound 0.000949 µM, first compound 0.0316 µM
[2] = second compound 0.000949 µM, first compound 0.1 µM
[3] = second compound 0.000949 µM, first compound 0.316 µM
[4] = second compound 0.000949 µM, first compound 1 µM
[5] = second compound 0.000949 µM, first compound 3.16 µM
[6] = second compound 0.000949 µM, first compound 10 µM
[7] = second compound 0.003 µM, first compound 0.0316 µM
[8] = second compound 0.003 µM, first compound 0.1 µM
[9] = second compound 0.003 µM, first compound 0.316 µM
[10] = second compound 0.003 µM, first compound 1 µM
[11] = second compound 0.003 µM, first compound 3.16 µM
[12] = second compound 0.003 µM, first compound 10 µM
[13] = second compound 0.00949 µM, first compound 0.0316 µM
[14] = second compound 0.00949 µM, first compound 0.1 µM
[15] = second compound 0.00949 µM, first compound 0.316 µM
[16] = second compound 0.00949 µM, first compound 1 µM
[17] = second compound 0.00949 µM, first compound 3.16 µM
[18] = second compound 0.00949 µM, first compound 10 µM
[19] = second compound 0.03 µM, first compound 0.0316 µM
[20] = second compound 0.03 µM, first compound 0.1 µM
[21] = second compound 0.03 µM, first compound 0.316 µM
[22] = second compound 0.03 µM, first compound 1 µM
[23] = second compound 0.03 µM, first compound 3.16 µM
[24] = second compound 0.03 µM, first compound 10 µM
[25] = second compound 0.0949 µM, first compound 0.0316 µM
[26] = second compound 0.0949 µM, first compound 0.1 µM
[27] = second compound 0.0949 µM, first compound 0.316 µM
[28] = second compound 0.0949 µM, first compound 1 µM
[29] = second compound 0.0949 µM, first compound 3.16 µM
[30] = second compound 0.0949 µM, first compound 10 µM
[31] = second compound 0.3 µM, first compound 0.0316 µM
[32] = second compound 0.3 µM, first compound 0.1 µM
[33] = second compound 0.3 µM, first compound 0.316 µM
[34] = second compound 0.3 µM, first compound 1 µM
[35] = second compound 0.3 µM, first compound 3.16 µM
[36] = second compound 0.3 µM, first compound 10 µM

CC(=O)OC12COC1CC(O)C1(C)C(=O)C(O)C3=C(C)C(OC(=O)C(O)C(NC(=O)OC(C)(C)C)c4ccccc4)CC(O)(C(OC(=O)c4ccccc4)C21)C3(C)C (centres undefined) + CCn1c(-c2cccnc2C(C)OC)c2c3cc(ccc31)N1CCOC(CC(NC(=O)C(C(C)C)N(C)C(=O)C3(F)CCN(C(=O)C#CC(C)(C)N(C)C)CC3)C(=O)N3CCCC(N3)C(=O)OCC(C)(C)C2)C1
IC50 (second compound 0.000949 µM): < 31.6 nM | IC50 (second compound 0.003 µM): < 31.6 nM | IC50 (second compound 0.00949 µM): < 31.6 nM | IC50 (second compound 0.03 µM): < 31.6 nM | IC50 (second compound 0.0949 µM): < 31.6 nM | IC50 (second compound 0.3 µM): < 31.6 nM | viability, T/C [1]: 31% | viability, T/C [2]: 29.6% | viability, T/C [3]: 20.6% | viability, T/C [4]: 34.7% | viability, T/C [5]: 48.4% | viability, T/C [6]: 45.6% | viability, T/C [7]: 32.6% | viability, T/C [8]: 32.1% | viability, T/C [9]: 37% | viability, T/C [10]: 33.3% | viability, T/C [11]: 52.1% | viability, T/C [12]: 39.7% | viability, T/C [13]: 30.8% | viability, T/C [14]: 31.6% | viability, T/C [15]: 29.4% | viability, T/C [16]: 36.3% | viability, T/C [17]: 39.3% | viability, T/C [18]: 43.2% | viability, T/C [19]: 31.4% | viability, T/C [20]: 32.9% | viability, T/C [21]: 31% | viability, T/C [22]: 35.4% | viability, T/C [23]: 33.1% | viability, T/C [24]: 46.4% | viability, T/C [25]: 34.2% | viability, T/C [26]: 34.1% | viability, T/C [27]: 36.6% | viability, T/C [28]: 37.3% | viability, T/C [29]: 34.9% | viability, T/C [30]: 42.1% | viability, T/C [31]: 28.1% | viability, T/C [32]: 40.2% | viability, T/C [33]: 31.8% | viability, T/C [34]: 37.9% | viability, T/C [35]: 33.5% | viability, T/C [36]: 36.9%

CCC(CC)c1cc(NC2CCC(N)C2)n2nccc2n1 (centres undefined) + CCn1c(-c2cccnc2C(C)OC)c2c3cc(ccc31)N1CCOC(CC(NC(=O)C(C(C)C)N(C)C(=O)C3(F)CCN(C(=O)C#CC(C)(C)N(C)C)CC3)C(=O)N3CCCC(N3)C(=O)OCC(C)(C)C2)C1
IC50 (second compound 0.000949 µM): 1960 nM | IC50 (second compound 0.003 µM): 1980 nM | IC50 (second compound 0.00949 µM): 1860 nM | IC50 (second compound 0.03 µM): 1840 nM | IC50 (second compound 0.0949 µM): 1770 nM | IC50 (second compound 0.3 µM): 1700 nM | viability, T/C [1]: 126% | viability, T/C [2]: 107% | viability, T/C [3]: 96.3% | viability, T/C [4]: 110% | viability, T/C [5]: 6.83% | viability, T/C [6]: 1.38% | viability, T/C [7]: 116% | viability, T/C [8]: 101% | viability, T/C [9]: 109% | viability, T/C [10]: 118% | viability, T/C [11]: 7.77% | viability, T/C [12]: 0.66% | viability, T/C [13]: 91.4% | viability, T/C [14]: 96.5% | viability, T/C [15]: 101% | viability, T/C [16]: 121% | viability, T/C [17]: 5.15% | viability, T/C [18]: 0.65% | viability, T/C [19]: 98.5% | viability, T/C [20]: 99.6% | viability, T/C [21]: 100% | viability, T/C [22]: 113% | viability, T/C [23]: 2.86% | viability, T/C [24]: 0.81% | viability, T/C [25]: 91.7% | viability, T/C [26]: 98.4% | viability, T/C [27]: 96.9% | viability, T/C [28]: 104% | viability, T/C [29]: 1.59% | viability, T/C [30]: 0.78% | viability, T/C [31]: 82.5% | viability, T/C [32]: 86.8% | viability, T/C [33]: 95% | viability, T/C [34]: 95% | viability, T/C [35]: 3.22% | viability, T/C [36]: 1.08%
